Experimental data: BindingDB's records for doi:10.1021/jm0304358 (Yale University, 2004)

What follows are compounds tested against Cyclin-dependent kinase 2 (Homo sapiens, UniProt P24941) (assay: Evaluated for inhibition of human cyclin dependent kinase 2 (CDK2)).

Q: `CN(C)c1ccc2c(c1)C(C=Nc1ccc(S(N)(=O)=O)cc1)C(=O)N2` (stereo not given) [4-({[5-(Dimethylamino)-2-oxo-1,2-dihydro-3H-indol-3-ylidene]methyl}amino)benzenesulfonamide] was tested. Which IC50 did it give?
A: 310 nM

Q: Which IC50 does the source give for `O=C1Nc2ccc3ncsc3c2C1C=Nc1ccc(S(=O)(=O)NCc2ccccc2)cc1` (stereo not given) [N-Benzyl-4-{[(7-oxo-6,7-dihydro-8H-[1,3]thiazolo[5,4-e]-indol-8-ylidene)methyl]amino}benzenesulfonamide] here?
A: 5.6 nM

Q: For `Cc1cccc2c1NC(=O)C2C=Nc1ccc(S(N)(=O)=O)cc1` (stereo not given), which IC50 is on record?
A: > 10000 nM

Q: For `CNS(=O)(=O)c1ccc(N=CC2C(=O)Nc3ccc4ncsc4c32)cc1` (stereo not given) [N-Methyl-4-{[(7-oxo-6,7-dihydro-8H-[1,3]thiazolo[5,4-e]-indol-8-ylidene)methyl]amino}benzenesulfonamide], which IC50 is on record?
A: 5.6 nM

Q: With `Cc1cc(Cl)cc2c1NC(=O)C2C=Nc1ccc(S(N)(=O)=O)cc1` (stereo not given) as the compound, how does the IC50 read?
A: > 10000 nM
